Our source for the Ki values is BindingDB's records for PubMed 9223568 (Yamanouchi Pharmaceutical, 1997).

The term Ki denotes a measure of affinity in units of concentration, obtained from inhibition or displacement. The low end stands for tighter binding, the high end for weaker binding.

“And” between values parts separate entries of the source, which are not always exact repeats. Equal entries are not always repeated. Numbered stars: 1 amine (or outer) side, 2 acyl side, 3 side chain; on linkers, the order of the positions; unused ones are H or OH. Bridge positions count the residues as written; N and C are the ends. Peptide text beside a SMILES is read from it. X1 = O=C(CC1(S[*:2])CCCCC1)[*:1]

Experiment [1] addresses T1, Oxytocin receptor (Rattus norvegicus, UniProt P70536).
T1 sequence (P70536 whole entry): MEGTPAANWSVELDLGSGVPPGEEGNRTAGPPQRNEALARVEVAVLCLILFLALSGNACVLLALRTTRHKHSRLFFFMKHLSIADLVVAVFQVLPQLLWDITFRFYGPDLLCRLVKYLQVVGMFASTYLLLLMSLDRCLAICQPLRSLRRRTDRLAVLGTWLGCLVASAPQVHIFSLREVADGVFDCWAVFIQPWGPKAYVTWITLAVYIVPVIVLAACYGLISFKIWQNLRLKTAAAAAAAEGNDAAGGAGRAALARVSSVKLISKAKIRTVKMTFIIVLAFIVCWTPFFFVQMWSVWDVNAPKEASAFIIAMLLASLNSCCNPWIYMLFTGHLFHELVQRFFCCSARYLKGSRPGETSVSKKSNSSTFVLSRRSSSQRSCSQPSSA

The target in experiment [2] is T2, Vasopressin V1b receptor (Rattus norvegicus, UniProt P48974).
T2 sequence (P48974 whole entry): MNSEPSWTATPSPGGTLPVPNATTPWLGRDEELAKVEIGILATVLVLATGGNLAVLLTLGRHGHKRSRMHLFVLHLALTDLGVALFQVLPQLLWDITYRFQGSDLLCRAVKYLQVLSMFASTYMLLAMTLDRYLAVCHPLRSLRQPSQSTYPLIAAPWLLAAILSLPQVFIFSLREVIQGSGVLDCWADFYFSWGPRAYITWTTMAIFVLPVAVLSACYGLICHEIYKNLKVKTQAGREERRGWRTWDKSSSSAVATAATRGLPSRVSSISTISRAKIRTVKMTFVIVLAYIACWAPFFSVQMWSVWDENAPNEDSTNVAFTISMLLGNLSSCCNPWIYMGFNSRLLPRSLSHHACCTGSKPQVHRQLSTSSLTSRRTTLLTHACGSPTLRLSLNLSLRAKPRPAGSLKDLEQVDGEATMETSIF

In experiment [3] the target is Vasopressin V1a receptor (Rattus norvegicus, UniProt P30560).
For experiment [4], the target named is Vasopressin V2 receptor (Rattus norvegicus, UniProt Q00788).
Chain of Vasopressin V2 receptor (Q00788 whole entry): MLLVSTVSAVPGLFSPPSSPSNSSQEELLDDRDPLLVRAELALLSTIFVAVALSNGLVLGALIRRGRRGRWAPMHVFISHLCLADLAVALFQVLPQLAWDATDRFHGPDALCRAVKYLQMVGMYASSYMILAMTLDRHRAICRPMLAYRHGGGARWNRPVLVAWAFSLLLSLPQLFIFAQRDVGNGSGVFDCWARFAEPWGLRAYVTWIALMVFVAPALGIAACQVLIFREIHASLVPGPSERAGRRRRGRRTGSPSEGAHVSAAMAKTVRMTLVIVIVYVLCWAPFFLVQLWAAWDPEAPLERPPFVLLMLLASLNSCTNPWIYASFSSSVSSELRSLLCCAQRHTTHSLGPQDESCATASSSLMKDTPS

Chain of Vasopressin V1a receptor (P30560 whole entry): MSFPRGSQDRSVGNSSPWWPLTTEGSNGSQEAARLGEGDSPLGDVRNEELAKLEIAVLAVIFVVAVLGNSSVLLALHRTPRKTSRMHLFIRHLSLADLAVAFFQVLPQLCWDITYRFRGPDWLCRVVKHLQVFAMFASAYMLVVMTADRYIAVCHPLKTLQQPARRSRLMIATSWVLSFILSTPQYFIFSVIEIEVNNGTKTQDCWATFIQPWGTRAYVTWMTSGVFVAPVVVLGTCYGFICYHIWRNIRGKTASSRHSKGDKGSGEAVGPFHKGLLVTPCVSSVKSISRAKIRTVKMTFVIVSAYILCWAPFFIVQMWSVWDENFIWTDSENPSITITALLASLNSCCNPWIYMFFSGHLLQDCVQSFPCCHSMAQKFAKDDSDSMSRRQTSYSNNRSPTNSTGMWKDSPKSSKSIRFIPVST

In the case of `Cc1ccccc1C(=O)Nc1ccc(C(=O)N2CCCC(N(C)C)c3ccccc32)cc1` (stereo not given), the Ki in experiment [1] was 1.55 µM; in experiment [2], over 10 µM; in experiment [3], 0.232 µM.

For the molecule `Cc1nc2c([nH]1)-c1ccccc1N(C(=O)c1ccc(NC(=O)c3ccccc3-c3ccccc3)cc1)CC2` [CONIVAPTAN], the Ki is 0.0444 µM in experiment [1]; over 10 µM in experiment [2]; 0.00048 µM and 0.00024 µM in experiment [3]; 0.00304 µM and 0.00038 µM in experiment [4].

As for `CC(=O)NCCCOc1ccc(C(=O)N2CCC(N3C(=O)CCc4ccccc43)CC2)cc1` [N-(3-(4-(4-(2-oxo-3,4-dihydroquinolin-1(2H)-yl)piperidine-1-carbonyl)phenoxy)propyl)acetamide], the Ki in experiment [1] was 0.333 µM; in experiment [2] it was over 10 µM; in experiment [3], 0.0235 µM and 0.0149 µM; in experiment [4] it was over 10 µM.

Consider `NC(=O)CC[C@@H]1NC(=O)[C@H](Cc2ccccc2)NC(=O)[C@H](Cc2ccc(O)cc2)NC(=O)CCSSC[C@@H](C(=O)N2CCC[C@H]2C(=O)N[C@H](CCCN=C(N)N)C(=O)NCC(N)=O)NC(=O)[C@H](CC(N)=O)NC1=O` [NSC_64759], for which the inhibitory constant (Ki) in experiment [4] is 0.00193 µM and 0.00794 µM.

As to `COc1ccc(C[C@@H]2NC(=O)CC3(CCCCC3)SSC[C@@H](C(=O)N3CCC[C@H]3C(=O)N[C@@H](CCCN=C(N)N)C(=O)NCC(N)=O)NC(=O)[C@H](CC(N)=O)NC(=O)[C@H](CCC(N)=O)NC(=O)[C@H](Cc3ccccc3)NC2=O)cc1` [NSC_105077] (Y(Me)FQNCPRG-NH2; linker N-5 via X1), the Ki in experiment [2] was 0.0376 µM; in experiment [3] it was 0.00179 µM and 0.00033 µM; in experiment [4], 0.0396 µM and 0.1 µM.
